Experimental data: patent US20120282187A1 (BOEHRINGER INGELHEIM INTERNATIONAL GMBH, priority 2008, published 2012)
Like-named read-outs stand apart in the source and are kept apart here.

System: patients with atrial fibrillation
Protocol: The PETRO-Ex study was conducted in 52 centers in the United States, Denmark, The Netherlands, and Sweden.
PETRO-Ex began while the PETRO study was ongoing and investigators were initially kept blinded to patient treatment group until PETRO was completed. Unblinding investigators to patient treatment was possible thereafter.
Data were summarized descriptively; no hypothesis was to be tested. Events were analyzed on the basis of the treatment at onset. Incidences were reported as of patients with events as well as normalized to 100 patient-years on the respective treatment.
Patients who were down titrated to 50 mg q.d. based on a glomerular filtration rate≦50 mL/min during PETRO were excluded from the long-term trial; patients down-titrated in other dose levels remained on the q.d. treatment at that dose.
The total exposure reflects both trials, PETRO and PETRO-Ex, together.

## CCCCCCOC(=O)NC(=N)c1ccc(NCc2nc3cc(C(=O)N(CCC(=O)OCC)c4ccccn4)ccc3n2C)cc1 [Dabigatran etexilate, 1-methyl-2-[N-[4-(N-n-hexyloxycarbonylamidino)phenyl]aminomethyl]benzimidazol-5-ylcarboxylic acid-N-(2-pyridyl)-N-(2-ethoxycarbonylethyl)amides]
50 mg b.i.d.
  ALT or AST >2xULN, number: 0
  ALT or AST >3xULN and Bili >2xULN within 30 days, number: 0
  ALT or AST >3xULN, number: 0
  ALT or AST >5xULN, number: 0
  Adverse Events leading to premature discontinuation, number: 5
  Adverse Events leading to premature discontinuation, rate: 21.3 per 100 patient-years
  MI, number: 0
  Major Bleeds with aspirin, number: 0
  Major Bleeds without aspirin, number: 0
  Major Bleeds, number: 0
  Other MACE, number: 2
  Stroke and Systemic Thromboembolism, number: 3
  TIA, number: 0
50 mg q.d.
  ALT or AST >2xULN, number: 0
  ALT or AST >3xULN and Bili >2xULN within 30 days, number: 0
  ALT or AST >3xULN, number: 0
  ALT or AST >5xULN, number: 0
  Adverse Events leading to premature discontinuation, number: 0
  MI, number: 0
  Major Bleeds with aspirin, number: 0
  Major Bleeds without aspirin, number: 0
  Major Bleeds, number: 0
  Other MACE, number: 0
  Stroke and Systemic Thromboembolism, number: 0
  TIA, number: 0
150 mg b.i.d.
  ALT or AST >2xULN, number: 21
  ALT or AST >2xULN, rate: 3.1 per 100 patient-years
  ALT or AST >3xULN and Bili >2xULN within 30 days, number: 3
  ALT or AST >3xULN and Bili >2xULN within 30 days, rate: 0.4 per 100 patient-years
  ALT or AST >3xULN, number: 13
  ALT or AST >3xULN, rate: 1.9 per 100 patient-years
  ALT or AST >5xULN, number: 7
  ALT or AST >5xULN, rate: 1.0 per 100 patient-years
  Adverse Events leading to premature discontinuation, number: 67
  Adverse Events leading to premature discontinuation, rate: 9.8 per 100 patient-years
  MI, number: 6
  Major Bleeds with aspirin, number: 11
  Major Bleeds with aspirin, rate: 8.7 per 100 patient-years
  Major Bleeds without aspirin, number: 18
  Major Bleeds without aspirin, rate: 3.2 per 100 patient-years
  Major Bleeds, number: 29
  Major Bleeds, rate: 4.2 per 100 patient-years
  Major bleeding events: 4.2 % per year
  Other MACE, number: 7
  Stroke and Systemic Thromboembolism, number: 7
  TIA, number: 1
  fatal major bleeds, number: 4
150 mg q.d.
  ALT or AST >2xULN, number: 2
  ALT or AST >2xULN, rate: 3.4 per 100 patient-years
  ALT or AST >3xULN and Bili >2xULN within 30 days, number: 0
  ALT or AST >3xULN, number: 0
  ALT or AST >5xULN, number: 0
  Adverse Events leading to premature discontinuation, number: 8
  Adverse Events leading to premature discontinuation, rate: 13.7 per 100 patient-years
  MI, number: 0
  Major Bleeds with aspirin, number: 0
  Major Bleeds without aspirin, number: 3
  Major Bleeds without aspirin, rate: 6.5 per 100 patient-years
  Major Bleeds, number: 3
  Major Bleeds, rate: 5.1 per 100 patient-years
  Other MACE, number: 0
  Stroke and Systemic Thromboembolism, number: 3
  TIA, number: 0
300 mg b.i.d.
  ALT or AST >2xULN, number: 4
  ALT or AST >2xULN, rate: 4.9 per 100 patient-years
  ALT or AST >3xULN and Bili >2xULN within 30 days, number: 0
  ALT or AST >3xULN, number: 2
  ALT or AST >3xULN, rate: 2.4 per 100 patient-years
  ALT or AST >5xULN, number: 1
  ALT or AST >5xULN, rate: 1.2 per 100 patient-years
  Adverse Events leading to premature discontinuation, number: 21
  Adverse Events leading to premature discontinuation, rate: 25.6 per 100 patient-years
  MI, number: 0
  Major Bleeds with aspirin, number: 6
  Major Bleeds with aspirin, rate: 32.7 per 100 patient-years
  Major Bleeds without aspirin, number: 4
  Major Bleeds without aspirin, rate: 6.3 per 100 patient-years
  Major Bleeds, number: 10
  Major Bleeds, rate: 12.2 per 100 patient-years
  Major bleeding events: 12.2 % per year
